Results as given in patent publication US7387778B2, “Therapeutic methods and compositions for the treatment of impaired interpersonal and behavioral disorders” (Institut Pasteur, priority 1999, dated 2008).

Legend:
[1] = tested on: male Wistar/AF EOPS rats; experiment: Behavioral despair test (forced swimming); type: in vivo, rat; conditions: for Immobility period, Test session / Immobility period, Retest session: first 5 minutes; for Immobility period, Test session: test is before any treatment
Description: Forty male Wistar/AF EOPS rats (Iffa-Credo Breeding Centre, 69-St-Germain sur l'Arbresle, France), weighing 300 to 320 g, were used. On arrival, the rats were labelled and distributed randomly in pairs into type F polycarbonate cages (48×27×20 cm, U.A.R., 91-Epinay-Sur-Orge, France). The animals were stabled in an air-conditioned animal house, at a temperature of 22-24° C. The rats were given food (M25 croquettes, Ets Piétrement, 77-Provins, France) and drink ad libitum and were subjected to a 12-hour light-darkness cycle.
After one week of familiarization with the laboratory conditions, the rats were weighed and distributed randomly into 3 treatment groups (n=12). The rats of the different groups will all be handled in the same way and under the same conditions.
The behavioral despair test takes place over two sessions: • a 15-minute test session; • a 5-minute retest session, performed 24 hours later.
During the test session, the rat was subjected to forced swimming in a Plexiglas cylinder (20 cm in diameter and 50 cm in height, containing 25 cm of water at 25° C.) and its behavior was recorded over 15 minutes. At the end of the test, the rat was removed from the water, dried gently, treated and then returned to its dwelling cage.
During the retest, 24 hours later, the rat was again placed in the water and its behavior was recorded over 5 minutes.
The recorded variables are the period of immobility during the first 5 minutes of both the test and the retest.
The peptide FG-005 was suspended at a rate of 500 μg per 5 ml of 0.01N acetic acid, and then diluted with PBS to be administered at doses of 50 and 100 μg/kg via the i.v. route into the dorsal caudal vein of the rat, immediately after the test and 300 and 5 minutes before the retest the following day (Table X). 8-OH-DPAT was injected i.p.
A bilateral probability paired t test was used to compare the two periods of immobility of the test with those of the retest in each of the groups. The results are expressed as an average standard error of mean (SEM) (Table XI and FIG. 20). The statistical and graphical processing was performed using Statview5 and DeltaGraph® Pro 3.5 software.

[2] = tested on: male rats; conditions: high doses; cited from earlier work
[3] = tested on: male Wistar rats; experiment: Irwin test; type: in vivo, rat; conditions: injected into tail vein, escalating doses
Description: An Irwin test was performed on 12 male Wistar rats (Iffa Credo, L'Arbresles, France), weighing 260-280 g. They were housed in groups of 4 in a climate controlled room with a 12 h light:dark cycle (light 8:00 PM-8:00 AM) and had access to food and water ad libitum. After a seven day acclimatization period, the rats were weighed, identified and randomly assigned to one of the four treatment groups. The drug was injected to the tail vein of the rats according to the group dose.
Observations were performed 15, 30, 60 and 120 minutes after administration. Among the most noticeable results are the results concerning the awareness state of the rats. […] Rats injected FG-005 are less stressed as shown by startle response test (FIG. 2), and by the abdominal tone (FIG. 3).

[4] = tested on: male Wistar rats; experiment: Behavior of male rats in the presence of receptive females; type: in vivo, rat
Description: Behavior tests were performed on 12 male Wistar rats (Iffa Credo, L'Arbresles, France), weighing 260-280 g. They were housed in groups of 4 in a climate controlled room with a 12-h light:dark cycle and had access to food and water ad libitum. After seven days acclimatization period, the rats were weighed, identified and randomly assigned to one of the four treatment groups. The rats were familiarized once with female rats which had been brought to sexual receptivity by injecting estradiol benzoate for 4 days (5 μg/0.5 ml oil, s.c. once daily). Behavioral testing was performed under blind conditions in a dimlight environment 2 hours after the onset of the dark phase of the light/dark cycle. Behavior was assessed by placing the male rat in a plexiglass cage (50×30×20 cm) five minutes before a receptive female was presented. All of the tests on rats were recorded on a VHS-videotape. The recorded parameters were: number of ejaculations, latency of first mount, latency of first ejaculation, number of mounts, postejaculatory interval, avoidance behavior patterns, awareness of other rats presence, initiation or response to social interaction, interest in other rat, self-care, willingness to enter into relationship. All of the quantitative results were analyzed using the Kruskal-Wallis test followed by the Mann-Whitney U-Test to compare each treated group with the control group. The statistical analyzes were carried out using the Statview 4.1 statistical package.

[5] = tested on: male rats with sexually receptive female; experiment: Dose-response relationship of FG-005 on male rat sexual behavior; type: in vivo; conditions: for total number of mounts with or without intromission, Mean: 45-min observation
Description: Effect of increasing concentrations of FG-005 peptide (SMR1-QHNPR) given i.v. on the number of sexual intercourse episodes of male rats with sexually receptive female, was assessed. All of the […] parameters were analyzed using one-way analysis of variance (ANOVA) for the differences between treated groups and followed by the multiple comparison test of Fisher (PLSD Fisher) to compare each group of FG-005-injected rats with the control group (vehicle-injected rats). Nine to ten rats were used for each group and P value of less than 0.005 was considered as significant for both tests.
This is appreciated by the significant dose-dependent increase of sexual interactions (mounts, mounts with intromission and mounts per ejaculation) during (first ejaculation latency and interejaculatory latency) episodes of sexual intercourse.

[6] = tested on: male rats; experiment: First two post ejaculatory intervals (PEI); type: in vivo, rat
Description: All quantitative results are statistically analyzed using a Krukal-Wallis test (KWT), as a between-group variable, followed by Mann-Whitney U-test (MWT) to compare the treated group to control one. Friedman test (FT), as within-group variable, was used for repeated measures across the first three ejaculatory series, followed by Wilcoxon (WT). Data are reported as mean ±SEM. For all statistical evaluations, the level of significance was set at p<0.05. All statistical analyses were carried out using the Statview™ 4.5 statistical package (Abacus Concepts, Inc, Berkeley, Calif.).
Masculine sociosexual behaviors other than copulatory acts were measured and analyzed during the two successive post-ejaculatory intervals. Among these are pursuit of the female, sniffing, grooming, running behind the partner in close contact and anogenital exploration (sniffing, licking and grooming the partner). […] Thus, for a similar amount of time in PEI duration compared to controls, the 3 μg/kg-treated rats spent during this interval, 7 to 10 fold more amount of time to pursue and groom the female.

[7] = tested on: male Wistar/AF EOPS rats; experiment: Behavioral despair test (forced swimming); type: in vivo, rat; conditions: 100 mg/kg; difference not statistically significant

CCCN(CCC)C1CCc2cccc(O)c2C1 (centres unmarked) [8-OH-DPAT, reference compound]
Immobility period, Test session ([1]; 0.5 mg/kg i.p. group): 109.20 | Immobility period, Retest session ([1]; 0.5 mg/kg i.p., 1440, 300, 30 min before retest): 31.60 | period of immobility, retest compared with test ([1]; 8-OH-DPAT 0.5 mg/kg i.p.): significantly reduce their period of immobility | anti-resignation effect ([1]; reference substance, 0.5 mg/kg i.p.): significant anti-resignation effect

CC[C@H](C)[C@@H]1NC(=O)[C@H](Cc2ccc(O)cc2)NC(=O)[C@@H](N)CSSC[C@@H](C(=O)N2CCC[C@H]2C(=O)N[C@@H](CC(C)C)C(=O)NCC(N)=O)NC(=O)[C@H](CC(N)=O)NC(=O)[C@H](CCC(N)=O)NC1=O [oxytocin]
locomotion [2]: decrease locomotion

Gln-His-Asn-Pro-Arg (QHNPR; This is a peptide sequence that was designed to achieve therapeutic effects in mammals.) [FG-005, synthesized pentapeptide with N-terminal Glutamine]
abdominal tone (FIG. 3) [3]: less stressed | aggressiveness [3]: not associated with an increase of aggressiveness | finger approach test [3]: increased interest | startle response test (FIG. 2) [3]: less stressed | vocalization when third parties approach [3]: increased vocalization | wire maneuver test [3]: Significant response | tail pinch test (FIGS. 4-7) ([3]; 15, 30, 60, 120 minutes): less reactivity to nociceptive stimuli | awareness state / sleep (FIG. 1) ([3]; after 2 hours of tests): much less likely to fall asleep | Latency of the first mount, Mean ([4]; 3 μg/kg): 93.333 s | latency of first mounts (in words) ([4]; 3 μg/kg): significantly increased latency | number of ejaculations in 45 minutes, Mean ([4]; 3 μg/kg): 5.333 | refractory period between the second ejaculation and the next mount, Mean ([4]; 3 μg/kg): 311.333 s | Latency of the first mount, Mean ([4]; 15 μg/kg): 23.000 s | number of ejaculations in 45 minutes, Mean ([4]; 15 μg/kg): 4.000 | refractory period between the second ejaculation and the next mount, Mean ([4]; 15 μg/kg): 412.000 s | Latency of the first mount, Mean ([4]; 30 μg/kg): 13.667 s | number of ejaculations in 45 minutes, Mean ([4]; 30 μg/kg): 4.667 | refractory period between the second ejaculation and the next mount, Mean ([4]; 30 μg/kg): 373.667 s | avoidance symptoms during refractory periods ([4]; treated vs control rats): loss of avoidance symptoms | duration of refractory periods (in words) ([4]; treated vs control rats): shortened | interest in the other rat after ejaculation ([4]; treated vs non-treated rats): interest is maintained | number of episodes of intercourse (number of ejaculations in 45 minutes, in words) ([4]; treated vs non-treated rats): significantly increased | self-care, attention to personal toilet after each penetration ([4]; treated vs non-treated rats): increased | mean number of mounts per ejaculation ([5]; 0.3 μg/kg i.v.): 20.220 | number of mounts before the first ejaculation, Mean ([5]; 0.3 μg/kg i.v.): 31.111 | number of mounts before the fourth ejaculation (interejaculatory interval), Mean ([5]; 0.3 μg/kg i.v.): 11.500 | number of mounts before the third ejaculation (interejaculatory interval), Mean ([5]; 0.3 μg/kg i.v.): 13.444 | number of mounts with intromission, Mean ([5]; 0.3 μg/kg i.v.): 77.111 | total number of mounts with or without intromission, Mean ([5]; 0.3 μg/kg i.v.): 81.778 | mean number of mounts per ejaculation ([5]; 1 μg/kg i.v.): 26.911 | number of mounts before the first ejaculation, Mean ([5]; 1 μg/kg i.v.): 33.444 | number of mounts before the fourth ejaculation (interejaculatory interval), Mean ([5]; 1 μg/kg i.v.): 19.143 | number of mounts before the third ejaculation (interejaculatory interval), Mean ([5]; 1 μg/kg i.v.): 18.333 | number of mounts with intromission, Mean ([5]; 1 μg/kg i.v.): 90.556 | total number of mounts with or without intromission, Mean ([5]; 1 μg/kg i.v.): 96.667 | first ejaculation latency ([5]; 3 μg/Kg vs vehicle-injected rats): increased significantly | total number of ejaculations ([5]; 3 μg/Kg, 45 min observation period): lower than that of vehicle-treated rats | mean number of mounts per ejaculation ([5]; 3 μg/kg i.v.): 36.013 | number of mounts before the first ejaculation, Mean ([5]; 3 μg/kg i.v.): 37.500 | number of mounts before the fourth ejaculation (interejaculatory interval), Mean ([5]; 3 μg/kg i.v.): 24.167 | number of mounts before the third ejaculation (interejaculatory interval), Mean ([5]; 3 μg/kg i.v.): 22.889 | number of mounts with intromission, Mean ([5]; 3 μg/kg i.v.): 97.700 | total number of mounts with or without intromission, Mean ([5]; 3 μg/kg i.v.): 110.100 | third ejaculation latency ([5]; dose-related manner): tended also to increase | second ejaculation latency ([5]; pronounced effect at 1 and 3 μg/Kg): significant dose-related prolongation | aggressive impulse behavior ([5]; treated vs control rats): loss of aggressive impulse behavior | duration of the first PEI ([6]; 1 μg/kg vs control): significantly longer | duration of the second PEI ([6]; 0.3, 1 and 3 μg/kg): not significantly influenced | duration of male socio-sexual behaviors during the first and second PEI ([6]; 0.3, 1 and 3 μg/kg vs controls): significantly more time | duration of male immobility during the first and second PEI ([6]; 0.3, 1 and 3 μg/kg vs vehicle controls): significantly less time | Immobility period, Retest session ([1]; 50 μg/kg i.v., 1440, 300, 5 min before retest): 141.20 ± 21.28 | period of immobility, retest compared with test ([1]; 50 μg/kg, difference not statistically significant): increase their period of immobility | Immobility period, Retest session ([1]; 100 μg/kg i.v., 1440, 300, 5 min before retest): 121.50 ± 17.47 | behavioral resignation (antidepressant effect) ([1]; 50 and 100 μg/kg, i.v.): no behavioral resignation | Immobility period, Test session ([1]; FG-50 group, 50 μg/kg i.v.): 119.00 ± 13.79 | Immobility period, Test session ([1]; FG-100 group, 100 μg/kg i.v.): 138.30 ± 11.03 | period of immobility, retest compared with test [7]: reduce it
